# Earlier results, collected in US20040127402A1, “Injectible composition and method for treating degenerative animal joints” (priority 2002, published 2004).
# Experiments:
# [1] = animal studies
substance,measurement,setting,value
Hyaluronic acid,duration of superiority to oral medications,"osteoarthritis; in vivo, po",up to six
same,duration of positive benefits,osteoarthritis; joint lavage prior to hyaluronic acid therapy,up to one
same,chondroprotective effect,[1],mild chondroprotective effect
